# Measurements taken from publication PMC8611036, “An integrated method for optimized identification of effective natural inhibitors against SARS-CoV-2 3CLpro” (Scientific Reports, 2021).
# Non-standard residues stand in square brackets, D forms with d. Residues, ends and D or L forms follow the SMILES beside them. 2Thi = N[C@@H](Cc1cccs1)C(=O)O; Cha = N[C@@H](CC1CCCCC1)C(=O)O
# Tested on: SARS-CoV 3CLpro
# Assay type: biochemical
# Conditions: not given
row,Compound,Inact.(<6)/Act.(>=6)
1,COC(=O)[C@]1(C)CC[C@]2(C)CC[C@]3(C)C4=CC=C5C(=CC(=O)C(O)=C5C)[C@]4(C)CC[C@@]3(C)[C@@H]2C1 [CMP128],Inact. (key: Inact.(<6); Act.(>=6))

# Same assay, conditions: activity class by pIC50 threshold 6
row,Compound,Inact.(<6)/Act.(>=6)
1,C=C(CCSc1ccccc1NC(=O)/C=C/c1ccccc1)OC [CMP107],Inact. (Inact.(<6))
2,CN1CCN(S(=O)(=O)c2ccc3c(c2)C(=O)C(=O)N3Cc2ccc3ccccc3c2)CC1 [CMP243],Inact. (Inact.(<6))
3,O=C1C(=O)N(Cc2ccc3ccccc3c2)c2ccc(S(=O)(=O)N3CCOCC3)cc21 [CMP246],Inact. (Inact.(<6))
4,COC(=O)c1nc(SSc2ccc(Cl)cc2)[nH]c1C [CMP268],Inact. (Inact.(<6))
5,O=C(Cn1nnc2ccccc21)N(Cc1ccsc1)c1ccc(-c2ccncc2)cc1 [CMP226],Inact. (Inact.(<6))
6,O=C[C@H](Cc1c[nH]cn1)NC[C@H]1C[C@@H]2CCCC[C@H]2CN1C(=O)c1ccc(Br)cc1 [CMP263],Inact. (Inact.(<6))
7,O=[N+]([O-])c1cc(C(F)(F)F)ccc1S(=O)(=O)c1ccc(Cl)cc1 [CMP287],Inact. (Inact.(<6))
8,O=C[C@H](Cc1cnc[nH]1)NC[C@@H]1C[C@H]2CCCC[C@@H]2CN1C(=O)c1ccc(Br)cc1 [CMP256],Inact. (Inact.(<6))
9,Cn1cnc(C(=O)N(c2ccc(C(C)(C)C)cc2)C(C(=O)NC(C)(C)C)c2cccnc2)c1 (centres unmarked) [CMP206],Inact. (Inact.(<6))
10,CC1CC(C)CN(S(=O)(=O)c2ccc3c(c2)C(=O)C(=O)N3C)C1 (centres unmarked) [CMP250],Inact. (Inact.(<6))
11,O=C[C@H](Cc1c[nH]cn1)NC[C@@H]1C[C@H]2CCCC[C@@H]2CN1C(=O)c1ccc(F)cc1 [CMP258],Inact. (Inact.(<6))
12,CN1CCN(S(=O)(=O)c2ccc3c(c2)C(=O)C(=O)N3Cc2ccccc2)CC1 [CMP242],Inact. (Inact.(<6))
13,CC1CCN(S(=O)(=O)c2ccc3c(c2)C(=O)C(=O)N3C)CC1 [CMP247],Inact. (Inact.(<6))
14,O=C(Oc1cncc(Br)c1)c1cccs1 [CMP232],Act. (Act.(>=6))
15,O=C1Nc2ccc(S(=O)(=O)N3CCN(CCc4ccccc4)CC3)cc2C1=O [CMP237],Inact. (Inact.(<6))
16,CC(C)(C)NC(=O)C(c1ccsc1)N(C(=O)Cn1nnc2ccccc21)c1ccc(NC(=O)C2CC2)cc1 (centres unmarked) [CMP191],Inact. (Inact.(<6))
17,O=C(Oc1cncc(Cl)c1)c1ccc(-c2cccc([N+](=O)[O-])c2)o1 [CMP278],Act. (Act.(>=6))
18,CC(=O)N[C@@H](CO)C(=O)N[C@H](C(=O)N[C@@H](CC1CCCCC1)C(=O)N[C@H](C=O)Cc1c[nH]cn1)C(C)C [CMP218] (Ac-SV[Cha]H-aldehyde),Act. (Act.(>=6))
19,O=C(Oc1cncc(Br)c1)c1ccco1 [CMP276],Act. (Act.(>=6))
20,CC1CC(C)CN(S(=O)(=O)c2ccc3c(c2)C(=O)C(=O)N3Cc2ccccc2)C1 (centres unmarked) [CMP251],Inact. (Inact.(<6))
21,CC(C)c1cc2c(cc1O)[C@@]1(C)CC[C@H](O)C(C)(C)[C@@H]1CC2 [CMP163],Inact. (Inact.(<6))
22,CCN(CC)c1ccc(C(=O)On2nnc3ccccc32)cc1 [CMP164],Inact. (Inact.(<6))
23,CC(=O)n1nc(SSc2ccccc2[N+](=O)[O-])nc1-c1cccnc1 [CMP272],Inact. (Inact.(<6))
24,O=C(Oc1cncc(Cl)c1)c1cccc([N+](=O)[O-])c1 [CMP275],Act. (Act.(>=6))
25,O=C1Nc2ccc(S(=O)(=O)N3CCN(C(=O)c4ccco4)CC3)cc2C1=O [CMP238],Inact. (Inact.(<6))
26,CC(C)c1cc2c(cc1O)[C@@]1(C)CCC[C@@](C)(C=O)[C@@H]1CC2 [CMP208],Inact. (Inact.(<6))

row,Compound,Inact.(<6)/Act.(>=6)
1,O=c1c(O)c(-c2ccc(O)c(O)c2)oc2cc(O)cc(O)c12 [CMP151],Inact. (Inact.(<6))
2,O=[N+]([O-])c1ccccc1SSc1nccs1 [CMP266],Inact. (Inact.(<6))
3,CN1CCN(S(=O)(=O)c2ccc3c(c2)C(=O)C(=O)N3)CC1 [CMP227],Inact. (Inact.(<6))
4,CC(C)(C)NC(=O)C(c1cnccn1)N(C(=O)c1ccco1)c1ccc(C(C)(C)C)cc1 (centres unmarked) [CMP204],Inact. (Inact.(<6))
5,CC(=O)N[C@@H](CO)C(=O)N[C@@H](C)C(=O)N[C@H](C(=O)N[C@@H](CC(C)C)C(=O)N[C@H](C=O)Cc1cccs1)C(C)C [CMP216] (Ac-SAVL[2Thi]-aldehyde),Inact. (Inact.(<6))
6,Cc1cc(S(=O)(=O)c2c([N+](=O)[O-])cc(C(F)(F)F)cc2[N+](=O)[O-])c(Cl)cc1Cl [CMP288],Act. (Act.(>=6))
7,Cc1cc(C(=O)N[C@@H](C)C(=O)N[C@H](C(=O)N[C@@H](CC(C)C)C(=O)N[C@H](C#N)CCC(N)=O)C(C)C)no1 [CMP228],Inact. (Inact.(<6))
8,CC(C)(C)NC(=O)C(c1cccnc1)N(C(=O)c1ccc(Cl)o1)c1ccc(C(C)(C)C)cc1 (centres unmarked) [CMP201],Inact. (Inact.(<6))
9,"CC(=O)Nc1cnc(SSc2ccc(Br)cc2)s1 [CMP23, reference compound]",Inact. (Inact.(<6))
10,O=C[C@H](Cc1c[nH]cn1)NC[C@@H]1C[C@H]2CCCC[C@@H]2CN1C(=O)c1ccccc1 [CMP262],Inact. (Inact.(<6))
11,O=C(Oc1cncc(Cl)c1)c1ccccc1[N+](=O)[O-] [CMP279],Act. (Act.(>=6))
12,O=C(Cn1nnc2ccccc21)N(Cc1ccsc1)c1ccc(-c2cccnc2)cc1 [CMP224],Act. (Act.(>=6))
13,O=C(Oc1cncc(Cl)c1)c1ccc(-c2ccc(Cl)cc2[N+](=O)[O-])o1 [CMP280],Act. (Act.(>=6))
14,COCCC(=O)Nc1ccc(N(C(=O)Cn2nnc3ccccc32)C(C)c2ccsc2)cc1 (centres unmarked) [CMP252],Inact. (Inact.(<6))
15,O=C(Oc1cncc(Cl)c1)c1ccc(-c2ccc([N+](=O)[O-])cc2)o1 [CMP282],Act. (Act.(>=6))
16,O=C(Oc1cncc(Cl)c1)c1ccncc1 [CMP167],Act. (Act.(>=6))
17,COc1ncccc1-c1ccc(N(Cc2ccsc2)C(=O)Cn2nnc3ccccc32)cc1 [CMP225],Act. (Act.(>=6))
18,Cc1nc(C)c(C(=O)C2=C(O)C(=O)N(CCCN3CCOCC3)C2c2cccc([N+](=O)[O-])c2)s1 (centres unmarked) [CMP289],Inact. (Inact.(<6))
19,CC(=O)Nc1ccc(N(C(=O)Cn2cc(-c3ccccc3)nn2)C(C(=O)NC(C)(C)C)c2ccsc2)cc1 (centres unmarked) [CMP210],Inact. (Inact.(<6))
20,O=C(Oc1cncc(Cl)c1)c1ccc(Cl)cc1 [CMP165],Act. (Act.(>=6))
21,CC1CC(C)CN(S(=O)(=O)c2ccc3c(c2)C(=O)C(=O)N3)C1 (centres unmarked) [CMP255],Inact. (Inact.(<6))
22,COc1cc(/C=C/C(=O)/C=C(O)/C=C/c2ccc(O)c(OC)c2)ccc1O [CMP156],Inact. (Inact.(<6))
23,Cc1csc(SSc2ccccc2[N+](=O)[O-])n1 [CMP267],Inact. (Inact.(<6))
24,CC(C)(C)NC(=O)C(c1cccnc1)N(C(=O)c1ncco1)c1ccc(C(C)(C)C)cc1 (centres unmarked) [CMP202],Inact. (Inact.(<6))
25,CC(C)C(=O)Nc1ccc(N(Cc2ccsc2)C(=O)Cn2nnc3ccccc32)cc1 [CMP198],Inact. (Inact.(<6))
26,COC(=O)c1ccccc1SSc1nc(C(=O)OC)c(C)[nH]1 [CMP265],Inact. (Inact.(<6))
